This note sets out measurements from patent US20260210939A1, “MODIFIED OLFACTORY RECEPTORS” (GIVAUDAN SA, priority 2022, published 2026).

The target in series [1] is human class II OR identified in the library screening (Homo sapiens, UniProt P34982). The series can be described thus: Confirmatory dose-response analysis of library-hit OR with cognate ligand, wild-type vs C-terminal domain SEQ ID NO: 221 (Table 17).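 Further: Wild-type receptor sequences expressed from the pcDNA3.1(+) vector and compared with the C-terminally modified receptors in dose-response tests using each receptor's cognate ligand.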 The following applies: read-out: Potency, EC50 changed C-term; OR1D2, modified C-terminus SEQ ID NO: 221 (SEQ ID NO: 336).
Target sequence in this assay (P34982 1-291): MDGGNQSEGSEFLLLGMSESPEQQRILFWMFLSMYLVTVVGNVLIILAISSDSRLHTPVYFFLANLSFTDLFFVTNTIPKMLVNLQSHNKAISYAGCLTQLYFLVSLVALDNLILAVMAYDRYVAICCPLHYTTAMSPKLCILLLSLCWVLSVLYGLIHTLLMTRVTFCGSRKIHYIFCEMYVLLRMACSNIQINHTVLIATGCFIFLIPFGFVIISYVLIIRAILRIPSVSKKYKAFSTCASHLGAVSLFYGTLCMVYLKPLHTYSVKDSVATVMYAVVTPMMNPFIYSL
Experimental: (§1) Selected ligand—OR pairs were then tested in a confirmatory test with a dose response analysis.
(§2) For selected receptors, the wild-type sequence was synthesized and cloned into pcDNA3.1 (+). Dose-response analysis with the cognate ligand was then performed for both the wild-type and the modified sequence.

For series [2], the system named is human class II OR identified in the library screening. The description is as above. The following applies: for Fold improvement efficacy: maximal induction; for EC50: read-out: Potency, EC50 changed C-term; for Detection threshold; Fold improvement efficacy: under detection threshold.
Experimental: as §1, §2
Series [3] addresses human class II OR identified in the library screening (Homo sapiens, UniProt P34982).
Target sequence in this assay (P34982 whole entry, the tested form may be a part): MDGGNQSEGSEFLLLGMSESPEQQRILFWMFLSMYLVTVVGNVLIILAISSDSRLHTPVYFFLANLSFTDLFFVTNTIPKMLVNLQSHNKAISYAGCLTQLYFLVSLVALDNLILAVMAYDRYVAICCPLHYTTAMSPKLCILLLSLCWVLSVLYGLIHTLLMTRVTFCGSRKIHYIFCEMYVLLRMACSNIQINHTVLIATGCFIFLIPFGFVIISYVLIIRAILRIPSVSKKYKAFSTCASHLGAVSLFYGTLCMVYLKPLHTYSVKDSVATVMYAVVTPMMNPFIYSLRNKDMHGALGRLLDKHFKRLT
Experimental: as §1, §2
Series [4] concerns human class II OR identified in the library screening.
Experimental: as §1, §2
Series [5] addresses human class II OR identified in the library screening (Homo sapiens, UniProt A6NM03). The series can be described thus: Confirmatory dose-response analysis of library-hit OR with cognate ligand, wild-type vs C-terminal domain SEQ ID NO: 221 (Table 17).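 Further: Wild-type receptor sequences expressed from the pcDNA3.1(+) vector and compared with the C-terminally modified receptors in dose-response tests using each receptor's cognate ligand.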 Particulars: read-out: Potency, EC50 changed C-term; OR2AG2 (Y28C), modified C-terminus SEQ ID NO: 221 (SEQ ID NO: 379).
Experimental: as §1, §2
In series [6] the target is human class II OR identified in the library screening (Homo sapiens, UniProt A6NM03, Y28C).
Chain of human class II OR identified in the library screening (Homo sapiens, UniProt A6NM03, Y28C) (A6NM03 whole entry Y28C): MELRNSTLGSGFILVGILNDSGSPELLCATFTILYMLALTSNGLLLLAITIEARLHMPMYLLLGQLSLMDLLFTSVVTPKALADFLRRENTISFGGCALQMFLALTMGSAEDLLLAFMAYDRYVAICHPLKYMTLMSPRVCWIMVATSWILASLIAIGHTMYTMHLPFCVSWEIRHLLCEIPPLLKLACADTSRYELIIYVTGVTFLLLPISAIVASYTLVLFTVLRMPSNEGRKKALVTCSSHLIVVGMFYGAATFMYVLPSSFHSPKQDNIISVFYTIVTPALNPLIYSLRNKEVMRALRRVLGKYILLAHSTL
Experimental: as §1, §2
Series [7] deals with human class II OR identified in the library screening (Homo sapiens, UniProt O60403).
Chain of human class II OR identified in the library screening (Homo sapiens, UniProt O60403) (O60403 whole entry): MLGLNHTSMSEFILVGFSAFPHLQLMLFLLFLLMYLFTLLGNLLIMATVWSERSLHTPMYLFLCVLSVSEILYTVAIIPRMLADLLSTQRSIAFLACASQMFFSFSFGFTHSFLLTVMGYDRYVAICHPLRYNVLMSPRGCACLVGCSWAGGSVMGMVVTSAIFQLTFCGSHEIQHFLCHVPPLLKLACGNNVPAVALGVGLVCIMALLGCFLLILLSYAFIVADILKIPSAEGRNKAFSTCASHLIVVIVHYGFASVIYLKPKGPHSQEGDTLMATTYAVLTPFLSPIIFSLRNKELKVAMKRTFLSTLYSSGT
Experimental: as §1, §2
Series [8] deals with T1, OR2T4 (Homo sapiens, UniProt Q8NH00, D328E/G331D/M330K).
T1 sequence (Q8NH00 with tags, fused parts or gaps D328E/M330K/G331D): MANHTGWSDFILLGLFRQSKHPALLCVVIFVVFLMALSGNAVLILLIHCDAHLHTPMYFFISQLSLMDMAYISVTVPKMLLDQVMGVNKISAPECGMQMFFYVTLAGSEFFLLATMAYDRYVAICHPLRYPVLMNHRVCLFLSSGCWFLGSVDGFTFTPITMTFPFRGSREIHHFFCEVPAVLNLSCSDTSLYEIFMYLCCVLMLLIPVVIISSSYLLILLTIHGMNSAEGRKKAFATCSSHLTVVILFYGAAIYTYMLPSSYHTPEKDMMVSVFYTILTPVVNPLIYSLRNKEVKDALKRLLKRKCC
The series can be described thus: cell-based.

Series [9] deals with T1, OR2T4.
Series [10] has as its target T2, human class II OR identified in the library screening (Homo sapiens, UniProt Q8NGP4). The series can be described thus: Confirmatory dose-response analysis of library-hit OR with cognate ligand, wild-type vs C-terminal domain SEQ ID NO: 221 (Table 17).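 Further: Wild-type receptor sequences expressed from the pcDNA3.1(+) vector and compared with the C-terminally modified receptors in dose-response tests using each receptor's cognate ligand.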
T2 sequence (Q8NGP4 whole entry, the tested form may be a part): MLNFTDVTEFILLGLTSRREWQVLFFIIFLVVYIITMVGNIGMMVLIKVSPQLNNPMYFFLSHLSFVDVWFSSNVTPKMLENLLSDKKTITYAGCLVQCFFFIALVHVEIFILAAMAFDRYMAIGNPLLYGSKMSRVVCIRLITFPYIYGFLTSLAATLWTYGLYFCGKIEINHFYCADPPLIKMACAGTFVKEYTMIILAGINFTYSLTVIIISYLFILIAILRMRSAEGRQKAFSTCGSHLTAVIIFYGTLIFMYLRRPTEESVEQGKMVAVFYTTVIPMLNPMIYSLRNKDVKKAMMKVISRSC
Experimental: as §1, §2
Series [11] addresses human class II OR identified in the library screening (Homo sapiens, UniProt Q8NGP4). The series is described as above. The following applies: read-out: Potency, EC50 changed C-term; OR5M3, modified C-terminus SEQ ID NO: 221 (SEQ ID NO: 559).
Target sequence in this assay (Q8NGP4 1-290): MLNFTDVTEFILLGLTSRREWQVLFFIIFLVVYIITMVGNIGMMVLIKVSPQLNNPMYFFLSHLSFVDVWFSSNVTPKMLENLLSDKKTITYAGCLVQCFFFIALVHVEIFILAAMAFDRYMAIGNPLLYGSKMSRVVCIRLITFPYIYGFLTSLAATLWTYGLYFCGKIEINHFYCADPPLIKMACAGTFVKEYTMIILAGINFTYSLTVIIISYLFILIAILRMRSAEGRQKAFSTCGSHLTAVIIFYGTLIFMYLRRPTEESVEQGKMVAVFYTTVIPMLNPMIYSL
Experimental: as §1, §2
Series [12] addresses T2, human class II OR identified in the library screening.
Experimental: as §1, §2
The target of series [13] is human class II OR identified in the library screening (Homo sapiens, UniProt Q8NH80). The series can be described thus: Confirmatory dose-response analysis of library-hit OR with cognate ligand, wild-type vs C-terminal domain SEQ ID NO: 221 (Table 17).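 Further: Wild-type receptor sequences expressed from the pcDNA3.1(+) vector and compared with the C-terminally modified receptors in dose-response tests using each receptor's cognate ligand.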 Particulars: read-out: Potency, EC50 changed C-term; OR10D3, modified C-terminus SEQ ID NO: 221 (SEQ ID NO: 671).
Target sequence in this assay (Q8NH80 1-290): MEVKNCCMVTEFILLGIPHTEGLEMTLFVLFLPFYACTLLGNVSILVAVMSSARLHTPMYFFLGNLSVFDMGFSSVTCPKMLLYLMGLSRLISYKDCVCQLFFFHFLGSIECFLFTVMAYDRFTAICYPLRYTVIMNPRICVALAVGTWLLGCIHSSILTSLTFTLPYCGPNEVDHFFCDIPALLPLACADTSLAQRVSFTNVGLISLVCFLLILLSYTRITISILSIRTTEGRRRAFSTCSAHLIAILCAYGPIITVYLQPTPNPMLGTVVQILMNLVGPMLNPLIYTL
Experimental: as §1, §2
The target is the same in series [14].
Target sequence in this assay (Q8NH80 whole entry, the tested form may be a part): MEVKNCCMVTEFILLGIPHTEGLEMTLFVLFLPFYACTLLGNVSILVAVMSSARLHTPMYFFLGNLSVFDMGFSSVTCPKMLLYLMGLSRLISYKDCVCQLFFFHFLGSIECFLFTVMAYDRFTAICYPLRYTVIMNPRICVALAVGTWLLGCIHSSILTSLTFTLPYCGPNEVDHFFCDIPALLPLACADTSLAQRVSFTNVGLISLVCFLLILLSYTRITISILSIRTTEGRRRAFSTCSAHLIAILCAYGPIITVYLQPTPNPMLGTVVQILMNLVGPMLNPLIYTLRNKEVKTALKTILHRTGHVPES
Experimental: as §1, §2
Series [15] addresses human class II OR identified in the library screening (Homo sapiens, UniProt A4D2G3).
Experimental: as §1, §2
Series [16] concerns the target human class II OR identified in the library screening (Homo sapiens, UniProt Q96R48).
Experimental: as §1, §2
Series [17] has as its target human class II OR identified in the library screening (Homo sapiens, UniProt O76100).
Experimental: as §1, §2
Series [18] has as its target human class II OR identified in the library screening (Homo sapiens, UniProt Q15622).
Experimental: as §1, §2
The target of series [19] is human class II OR identified in the library screening (Homo sapiens, UniProt Q8WZ84). The series can be described thus: Confirmatory dose-response analysis of library-hit OR with cognate ligand, wild-type vs C-terminal domain SEQ ID NO: 221 (Table 17). Particulars: OR8D1, wild-type sequence.
Chain of human class II OR identified in the library screening (Homo sapiens, UniProt Q8WZ84) (Q8WZ84 whole entry, the tested form may be a part): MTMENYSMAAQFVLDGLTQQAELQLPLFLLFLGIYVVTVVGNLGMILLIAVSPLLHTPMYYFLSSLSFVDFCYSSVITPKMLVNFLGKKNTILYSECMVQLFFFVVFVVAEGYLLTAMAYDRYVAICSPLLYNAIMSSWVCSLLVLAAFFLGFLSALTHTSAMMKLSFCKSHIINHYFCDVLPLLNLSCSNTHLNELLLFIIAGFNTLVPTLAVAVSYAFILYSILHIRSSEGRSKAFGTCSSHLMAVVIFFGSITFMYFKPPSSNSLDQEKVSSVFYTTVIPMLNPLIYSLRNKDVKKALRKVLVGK
Experimental: as §1, §2
Series [20] concerns the target human class II OR identified in the library screening (Homo sapiens, UniProt Q8NGN4). The series is described as above. The following applies: OR10G9, wild-type sequence.
Experimental: as §1, §2
For series [21], the target named is human class II OR identified in the library screening (Homo sapiens, UniProt Q8NGC4). The series is described as above. Particulars: read-out: Potency, EC50 changed C-term; OR10G3 (S73G), modified C-terminus SEQ ID NO: 221 (SEQ ID NO: 673).
Chain of human class II OR identified in the library screening (Homo sapiens, UniProt Q8NGC4) (Q8NGC4 1-291): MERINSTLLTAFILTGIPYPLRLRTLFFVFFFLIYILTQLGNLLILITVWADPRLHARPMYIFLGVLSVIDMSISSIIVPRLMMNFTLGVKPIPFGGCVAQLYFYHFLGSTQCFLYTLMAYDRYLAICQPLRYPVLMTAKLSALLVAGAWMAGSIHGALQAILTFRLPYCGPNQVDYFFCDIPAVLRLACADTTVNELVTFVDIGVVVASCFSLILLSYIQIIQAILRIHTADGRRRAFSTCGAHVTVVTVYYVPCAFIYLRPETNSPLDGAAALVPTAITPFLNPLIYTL
Experimental: as §1, §2
Where [22] appears, read: OR5M3, modified C-terminus SEQ ID NO: 221 vs wild-type.
The mark [23] stands for this setting: OR8D1, modified C-terminus SEQ ID NO: 221 (SEQ ID NO: 631).
The mark [24] stands for this setting: OR8D1, modified C-terminus SEQ ID NO: 221 vs wild-type.
Setting [25] is: OR10G9, modified C-terminus SEQ ID NO: 221 (SEQ ID NO: 678).
Where [26] appears, read: OR10G9, modified C-terminus SEQ ID NO: 221 vs wild-type.

Like-named read-outs stand apart in the source and are kept apart here. Bounds are passed on as bounds.

Chain of human class II OR identified in the library screening (Homo sapiens, UniProt Q8NGN4) (Q8NGN4 whole entry): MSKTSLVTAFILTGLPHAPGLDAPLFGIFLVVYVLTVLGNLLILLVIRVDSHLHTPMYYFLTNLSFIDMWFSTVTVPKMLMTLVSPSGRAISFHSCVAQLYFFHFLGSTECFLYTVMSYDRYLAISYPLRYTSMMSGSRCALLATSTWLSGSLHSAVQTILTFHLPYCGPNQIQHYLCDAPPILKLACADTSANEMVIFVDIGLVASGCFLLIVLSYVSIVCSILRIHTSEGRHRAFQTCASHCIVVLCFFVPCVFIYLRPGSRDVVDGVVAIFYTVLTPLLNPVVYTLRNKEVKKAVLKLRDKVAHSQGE
Chain of human class II OR identified in the library screening (Homo sapiens, UniProt O76100) (O76100 whole entry): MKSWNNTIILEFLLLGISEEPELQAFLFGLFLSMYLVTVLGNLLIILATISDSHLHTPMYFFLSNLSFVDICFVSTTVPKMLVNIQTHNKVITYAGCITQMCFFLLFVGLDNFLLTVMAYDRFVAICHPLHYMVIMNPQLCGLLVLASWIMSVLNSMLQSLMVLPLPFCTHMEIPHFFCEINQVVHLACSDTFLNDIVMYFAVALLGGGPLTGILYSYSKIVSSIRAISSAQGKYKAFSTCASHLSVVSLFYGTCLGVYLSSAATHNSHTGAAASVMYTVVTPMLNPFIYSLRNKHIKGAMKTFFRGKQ
Chain of human class II OR identified in the library screening (Homo sapiens, UniProt A4D2G3) (A4D2G3 whole entry): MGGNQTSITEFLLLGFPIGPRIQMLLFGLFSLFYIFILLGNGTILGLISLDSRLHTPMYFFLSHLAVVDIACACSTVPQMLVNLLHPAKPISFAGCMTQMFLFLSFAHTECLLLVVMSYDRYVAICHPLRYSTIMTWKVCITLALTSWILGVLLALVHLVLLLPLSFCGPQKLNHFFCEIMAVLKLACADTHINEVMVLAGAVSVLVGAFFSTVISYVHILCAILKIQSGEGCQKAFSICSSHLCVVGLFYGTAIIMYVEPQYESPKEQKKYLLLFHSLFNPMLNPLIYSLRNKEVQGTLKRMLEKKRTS
Chain of human class II OR identified in the library screening (Homo sapiens, UniProt Q15622) (Q15622 whole entry, the tested form may be a part): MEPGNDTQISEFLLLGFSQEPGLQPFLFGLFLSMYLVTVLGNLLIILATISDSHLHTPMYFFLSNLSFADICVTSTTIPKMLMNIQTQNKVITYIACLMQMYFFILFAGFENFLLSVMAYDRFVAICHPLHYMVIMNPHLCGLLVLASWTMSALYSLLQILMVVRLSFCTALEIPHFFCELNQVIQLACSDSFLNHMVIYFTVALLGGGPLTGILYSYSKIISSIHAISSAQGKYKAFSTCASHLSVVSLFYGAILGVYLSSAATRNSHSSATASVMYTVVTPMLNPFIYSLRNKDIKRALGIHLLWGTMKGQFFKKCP
Chain of human class II OR identified in the library screening (Homo sapiens, UniProt Q96R48) (Q96R48 whole entry): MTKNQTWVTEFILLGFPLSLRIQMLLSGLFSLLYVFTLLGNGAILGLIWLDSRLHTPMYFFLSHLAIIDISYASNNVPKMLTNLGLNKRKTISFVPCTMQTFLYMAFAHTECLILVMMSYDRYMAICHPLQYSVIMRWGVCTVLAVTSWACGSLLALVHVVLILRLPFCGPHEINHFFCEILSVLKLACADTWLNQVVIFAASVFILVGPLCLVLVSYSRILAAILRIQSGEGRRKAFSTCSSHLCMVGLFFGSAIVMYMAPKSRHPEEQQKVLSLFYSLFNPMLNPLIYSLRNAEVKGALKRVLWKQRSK

By EC50 is commonly meant the concentration needed to bring the measured effect to its halfway point. On to `CC/C(C)=C/CC[C@H](C)CCO` [(E,S)-3,7-dimethylnon-6-en-1-ol], for which the EC50 in [1] worked out at 34.6 µM. Further, the Fold improvement efficacy in [2] (OR1D2, modified C-terminus SEQ ID NO: 221 vs wild-type) was 14.9 fold. For the same compound, in [3], the “Detection threshold; concentration for 2-fold induction, wild-type” value is recorded as “no”. In addition, the “Detection threshold; concentration for 2-fold induction, changed C-term.” value in series [4] came to 3.0 µM.
`O=C(OCc1ccccc1)c1ccccc1O` [Benzyl salicylate]: the EC50 in [5] was 4.5 µM. Also, the Fold improvement efficacy in series [2] (OR2AG2 (Y28C), modified C-terminus SEQ ID NO: 221 vs wild-type) turned out to be 10.2 fold. Further, the “Detection threshold; concentration for 2-fold induction, wild-type” value in series [6] is “no”. In [4], the “Detection threshold; concentration for 2-fold induction, changed C-term.” value was 1.3 µM.
As for `CC(C)c1ccc2c(c1)OCC(=O)CO2` [Cascalone], in series [2] (OR10H2, modified C-terminus SEQ ID NO: 221 vs wild-type), the Fold improvement efficacy is reported as 7.0 fold. In addition, the EC50 in series [2] (OR10H2, modified C-terminus SEQ ID NO: 221 (SEQ ID NO: 680)) turned out to be 226 µM. The “Detection threshold; concentration for 2-fold induction, wild-type” value in series [7] is given as “no”. Moreover, the “Detection threshold; concentration for 2-fold induction, changed C-term.” value in series [4] was found to be 108.6 µM.
Regarding `SC1CCCC1` [Cyclopentanethiol, reference compound], on OR2T4 [8], the EC50 was greater than 316 µM. The Comments on efficacy result at OR2T4 [9] is “No induction”. Further, at OR2T4 [9] (OR2T4 with optimized C-terminus SEQ ID NO: 86), the “ligand identification in sulfur odorant screen” value is reported as “good ligands”. In addition, at OR2T4 [9] (changed C-term. vs wild-type), the Fold-improvement potency was >>22 and the Fold-improvement threshold was >>100.
For the compound `CC1=C(O)C(=O)C(C)O1` (centres unmarked) [Furaneol], the figures for the EC50 in series [10] and in series [11] were 65.3 µM and 8.7 µM, respectively. Also, in series [2] (OR5M3, EC50 modified C-terminus SEQ ID NO: 221 vs wild-type), the “Potency, Fold-improvement” value is 7.5 fold. In series [2] (setting [22]), this compound came in with a Fold improvement efficacy of 16.8 fold. The “Detection threshold; Fold improvement efficacy” value in series [2] (setting [22]) turned out to be 100.7 fold. Besides, the “Detection threshold; concentration for 2-fold induction, wild-type” value in series [12] worked out at 30.5 µM. Besides, in series [4], the “Detection threshold; concentration for 2-fold induction, changed C-term.” value turned out to be 0.3 µM.
The compound `CC=Cc1ccc(O)c(OC)c1` [Isoeugenol] registered a Fold improvement efficacy in series [2] (OR10D3, modified C-terminus SEQ ID NO: 221 vs wild-type) of 6.1 fold. Further, the EC50 in series [13] stood at 8.4 µM. Also, the “Detection threshold; concentration for 2-fold induction, changed C-term.” value in [4] was found to be 1.4 µM. In addition, in [14], the “Detection threshold; concentration for 2-fold induction, wild-type” value is “no”.
As for `CC(C)=CCC(C)C1CC1(C)CO` (centres unmarked) [Rosyfolia], the Fold improvement efficacy was 3.0 fold in series [2] (OR2A5, modified C-terminus SEQ ID NO: 221 vs wild-type) and 7.6 fold in [2] (OR2A25, modified C-terminus SEQ ID NO: 221 vs wild-type). Besides, the EC50 in [2] (OR2A5, modified C-terminus SEQ ID NO: 221 (SEQ ID NO: 374)) was 18 µM; in series [2] (OR2A25, modified C-terminus SEQ ID NO: 221 (SEQ ID NO: 370)), 11 µM. The “Detection threshold; concentration for 2-fold induction, wild-type” value in series [15] and in [16] was “no” each time.
On to `C=C(C)[C@@H]1CC[C@H](C)C2=C(C1)[C@@H](C)CC2=O` [Rotundone], for which the Fold improvement efficacy in [2] (OR7A5, modified C-terminus SEQ ID NO: 221 vs wild-type) amounted to 24. fold; in [2] (OR7A10, modified C-terminus SEQ ID NO: 221 vs wild-type), 5.9 fold. The EC50 was 5.6 µM in series [2] (OR7A5, modified C-terminus SEQ ID NO: 221 (SEQ ID NO: 612)) and 0.16 µM in series [2] (OR7A10, modified C-terminus SEQ ID NO: 221 (SEQ ID NO: 610)). The “Detection threshold; concentration for 2-fold induction, wild-type” value in series [17] and in [18] was “no” in each case.
For the compound `CC1=C(O)C(=O)OC1C` (centres unmarked) [Sotolone], the “Potency, Fold-improvement” value in series [2] (OR8D1, EC50 modified C-terminus SEQ ID NO: 221 vs wild-type) turned out to be 2.5 fold. Further, in series [2] (setting [23]), the “Detection threshold; concentration for 2-fold induction, changed C-term.” value amounted to 0.48 µM and the EC50 came out at 7.5 µM. Moreover, in series [2] (setting [24]), the Fold improvement efficacy was 2.1 fold and the “Detection threshold; Fold improvement efficacy” value is reported as 5.2 fold. The “Detection threshold; concentration for 2-fold induction, wild-type” value in series [19] turned out to be 2.5 µM.
With `CCOc1cc(C)ccc1O` [Ultravanil], the “Potency, Fold-improvement” value in [2] (OR10G9, EC50 modified C-terminus SEQ ID NO: 221 vs wild-type) is reported as 4.8 fold. Moreover, in [2] (setting [25]), the “Detection threshold; concentration for 2-fold induction, changed C-term.” value was determined as 1.7 µM and the EC50 came out at 19 µM. In series [2] (setting [26]), the Fold improvement efficacy stood at 3.4 fold and the “Detection threshold; Fold improvement efficacy” value is recorded as 8.62 fold. The “Detection threshold; concentration for 2-fold induction, wild-type” value in series [20] was found to be 14.6 µM.
As for `COc1cc(C=O)ccc1O` [Vanillin], in series [21], the EC50 is 15.3 µM.
